Values of other authors in patent publication US20060165637A1, “Topical agent containing phytanic acid or a derivative thereof” (priority 2003, published 2006).

Tests used:
RXR = conditions: relative to retinoic acid
[1] = applied topically to the skin

RXR binding affinity, times weaker than that of retinoic acid (RXR)	conversion into phytanic acid [1]	Compound
200 times		CC(C)CCCC(C)CCCC(C)CCCC(C)CC(=O)O (centres unmarked) [Phytanic acid, 3,7,11,15-tetramethylhexadecanoic acid]
	does not occur	C/C(=C\CO)CCC[C@H](C)CCC[C@H](C)CCCC(C)C [phytol]
